Measured values reported in ChEMBL document CHEMBL5506037, “Synthesis of Heterocyclic Ring-Fused Bisnoralcohol Derivatives as Novel Small-Molecule Antiosteoporosis Agents” (J Med Chem, 2024).

Tests used:
[1] = test system: BMMC; assay: Anti-osteoclastogenesis activity in M-CSF/RANKL-induced C57BL/6J mouse BMMC cells assessed as inhibition of osteoclast differentiation at 1 uM incubated for 7 days by TRAP staining based analysis relative to control; format: functional; conditions: 168 h, time 7 day
[2] = test system: BMMC; assay: Anti-osteoclastogenesis activity in M-CSF/RANKL-induced C57BL/6J mouse BMMC cells assessed as inhibition of osteoclast differentiation at 5 uM incubated for 7 days by TRAP staining based analysis relative to control; format: functional; conditions: 168 h, time 7 day
[3] = test system: BMMC; assay: Anti-osteoclastogenesis activity in M-CSF/RANKL-induced C57BL/6J mouse BMMC cells assessed as inhibition of osteoclast differentiation at 10 uM incubated for 7 days by TRAP staining based analysis relative to control; format: functional; conditions: 168 h, time 7 day
[4] = Cytotoxicity against M-CSF induced C57BL/6J mouse BMMC cells assessed as cell viability at 10 uM incubated for 48 hrs by CCK-8 assay relative to control; format: toxicity, cell-based; conditions: read-out: Activity
[5] = test system: BMMC; assay: Anti-osteoclastogenesis activity in M-CSF/RANKL-induced C57BL/6J mouse BMMC cells assessed as inhibition of osteoclast differentiation incubated for 7 days by TRAP staining based analysis; format: functional, cell-based; conditions: 168 h
[6] = test system: BMMC; assay: Anti-osteoclastogenesis activity in M-CSF/RANKL-induced C57BL/6J mouse BMMC cells assessed as inhibition of osteoclast differentiation at 0.1 uM incubated for 7 days by TRAP staining based analysis relative to control; format: functional; conditions: 168 h, time 7 day
[7] = Toxicity in ovariectomized female C57BL/6 mouse assessed as reduction in body weight at 25 ug/kg, sc administered every day for 6 weeks; format: organism-based; conditions: in vivo, 0.025 mg/kg, 1008 h, dose 25 µg/kg
[8] = test system: Mus musculus; assay: Anti-osteoporosis activity in ovariectomized C57BL/6 mouse assessed as prevention of bone loss by measuring increase in BV/TV at 25 ug/kg, sc administered every day for 6 weeks by micro-CT analysis relative to control; format: functional; conditions: dose 25 µg/kg
[9] = test system: Mus musculus; assay: Anti-osteoporosis activity in ovariectomized C57BL/6 mouse assessed as prevention of bone loss by measuring increase in trabecular number at 25 ug/kg, sc administered every day for 6 weeks by micro-CT analysis relative to control; format: functional
[10] = test system: Mus musculus; assay: Anti-osteoporosis activity in ovariectomized C57BL/6 mouse assessed as prevention of bone loss by measuring increase in trabecular thickness at 25 ug/kg, sc administered every day for 6 weeks by micro-CT analysis relative to control; format: functional
[11] = test system: Mus musculus; assay: Anti-osteoporosis activity in ovariectomized C57BL/6 mouse assessed as prevention of bone loss by measuring decrease in trabecular spacing at 25 ug/kg, sc administered every day for 6 weeks by micro-CT analysis relative to control; format: functional; set-up: scale not given: the % may be the effect or the level left

Compound	inhibition at 1 µM [1] [%]	inhibition at 5 µM [2] [%]	inhibition at 10 µM [3] [%]	viability at 48 h, 10 µM [4] [%]	inhibition at 0.1 µM [6] [%]	also measured
C[C@H](CO)[C@H]1CC[C@H]2[C@@H]3CC=C4C(C)(C)c5[nH]ncc5C[C@]4(C)[C@H]3CC[C@]12C	34.6	87	100	≥ 100		
C[C@H](CO)[C@H]1CC[C@H]2[C@@H]3CCC4=CC(=O)CC[C@]4(C)[C@H]3CC[C@]12C		78.6	100	≥ 100		IC50 [5]: 2.33 µM
C[C@H](C(=O)Nc1ccc(F)cc1)[C@H]1CC[C@H]2[C@@H]3CC=C4C(C)(C)c5nnsc5C[C@]4(C)[C@H]3CC[C@]12C	91.9			≥ 100	47.5	
C[C@H](C(=O)Nc1ccncc1)[C@H]1CC[C@H]2[C@@H]3CC=C4C(C)(C)c5nnsc5C[C@]4(C)[C@H]3CC[C@]12C	85.5			≥ 100	30.2	
CC(C)CNC(=O)[C@@H](C)[C@H]1CC[C@H]2[C@@H]3CC=C4C(C)(C)c5nnsc5C[C@]4(C)[C@H]3CC[C@]12C	100			≥ 100	72.1	
COc1ccc(NC(=O)[C@@H](C)[C@H]2CC[C@H]3[C@@H]4CC=C5C(C)(C)c6nnsc6C[C@]5(C)[C@H]4CC[C@]23C)cc1	100			≥ 100	69.6	
C[C@H](CO)[C@H]1CC[C@H]2[C@@H]3CC=C4C(C)(C)c5nccnc5C[C@]4(C)[C@H]3CC[C@]12C	13.9	44.9	67.8	≥ 100		
C[C@H](C(=O)NC1CCCCC1)[C@H]1CC[C@H]2[C@@H]3CC=C4C(C)(C)c5nnsc5C[C@]4(C)[C@H]3CC[C@]12C	100			≥ 100	54	
CCCCCCNC(=O)[C@@H](C)[C@H]1CC[C@H]2[C@@H]3CC=C4C(C)(C)c5nnsc5C[C@]4(C)[C@H]3CC[C@]12C	87.2			≥ 100	50.1	
CCNC(=O)CCC[C@@H](C)[C@H]1CC[C@H]2[C@@H]3CC=C4C(C)(C)c5nnsc5C[C@]4(C)[C@H]3CC[C@]12C	100			≥ 100	15.8	
CNC(=O)[C@@H](C)[C@H]1CC[C@H]2[C@@H]3CC=C4C(C)(C)c5nnsc5C[C@]4(C)[C@H]3CC[C@]12C	100			≥ 100	49.3	
CCNC(=O)CCCC[C@@H](C)[C@H]1CC[C@H]2[C@@H]3CC=C4C(C)(C)c5nnsc5C[C@]4(C)[C@H]3CC[C@]12C	98.8			≥ 100	7.4	
CCCNC(=O)[C@@H](C)[C@H]1CC[C@H]2[C@@H]3CC=C4C(C)(C)c5nnsc5C[C@]4(C)[C@H]3CC[C@]12C	100			≥ 100	72.7	
C[C@H](C(=O)N1CCOCC1)[C@H]1CC[C@H]2[C@@H]3CC=C4C(C)(C)c5nnsc5C[C@]4(C)[C@H]3CC[C@]12C	91.9			≥ 100	53.5	
CCCCNC(=O)[C@@H](C)[C@H]1CC[C@H]2[C@@H]3CC=C4C(C)(C)c5nnsc5C[C@]4(C)[C@H]3CC[C@]12C	100			≥ 100	76.3	
CC[C@H](C)[C@H](NC(=O)[C@H](CCC(=O)O)NC(=O)[C@H](CO)NC(=O)[C@@H](NC(=O)[C@@H](N)CO)C(C)C)C(=O)N[C@@H](CCC(N)=O)C(=O)N[C@@H](CC(C)C)C(=O)N[C@@H](CCSC)C(=O)N[C@@H](Cc1cnc[nH]1)C(=O)N[C@@H](CC(N)=O)C(=O)N[C@@H](CC(C)C)C(=O)NCC(=O)N[C@@H](CCCCN)C(=O)N[C@@H](Cc1cnc[nH]1)C(=O)N[C@@H](CC(C)C)C(=O)N[C@@H](CC(N)=O)C(=O)N[C@@H](CO)C(=O)N[C@@H](CCSC)C(=O)N[C@@H](CCC(=O)O)C(=O)N[C@@H](CCCNC(=N)N)C(=O)N[C@H](C(=O)N[C@@H](CCC(=O)O)C(=O)N[C@@H](Cc1c[nH]c2ccccc12)C(=O)N[C@@H](CC(C)C)C(=O)N[C@@H](CCCNC(=N)N)C(=O)N[C@@H](CCCCN)C(=O)N[C@@H](CCCCN)C(=O)N[C@@H](CC(C)C)C(=O)N[C@@H](CCC(N)=O)C(=O)N[C@@H](CC(=O)O)C(=O)N[C@H](C(=O)N[C@@H](Cc1cnc[nH]1)C(=O)N[C@@H](CC(N)=O)C(=O)N[C@@H](Cc1ccccc1)C(=O)O)C(C)C)C(C)C [TERIPARATIDE]						Activity [7]: Non-Toxic; Activity [8]: 81.68%; Activity [9]: 41.75%; Activity [10]: 86.08%; Activity [11]: 52.76%
CCNC(=O)CC[C@@H](C)[C@H]1CC[C@H]2[C@@H]3CC=C4C(C)(C)c5nnsc5C[C@]4(C)[C@H]3CC[C@]12C	100			≥ 100	46.4	
C=CCNC(=O)[C@@H](C)[C@H]1CC[C@H]2[C@@H]3CC=C4C(C)(C)c5nnsc5C[C@]4(C)[C@H]3CC[C@]12C	98.3			≥ 100	61.1	
C[C@H](C(=O)Nc1ccc(Br)cc1)[C@H]1CC[C@H]2[C@@H]3CC=C4C(C)(C)c5nnsc5C[C@]4(C)[C@H]3CC[C@]12C	65.1			≥ 100	0	
C[C@H](CO)[C@H]1CC[C@H]2[C@@H]3CC=C4C(C)(C)c5nc(N)ncc5C[C@]4(C)[C@H]3CC[C@]12C	25.9	87.3	100	≥ 100		
CCNC(=O)C[C@@H](C)[C@H]1CC[C@H]2[C@@H]3CC=C4C(C)(C)c5nnsc5C[C@]4(C)[C@H]3CC[C@]12C	99.5			≥ 100	21.9	
C[C@H](CO)[C@H]1CC[C@H]2[C@@H]3CC=C4C(C)(C)c5nc6ccccc6cc5C[C@]4(C)[C@H]3CC[C@]12C	37.8	47.2	93.9	≥ 100		
C[C@H](CO)[C@H]1CC[C@H]2[C@@H]3CC=C4C(C)(C)c5nnsc5C[C@]4(C)[C@H]3CC[C@]12C	75.8	100	100	≥ 100		
C[C@H](C(=O)Nc1nccs1)[C@H]1CC[C@H]2[C@@H]3CC=C4C(C)(C)c5nnsc5C[C@]4(C)[C@H]3CC[C@]12C	85.9			≥ 100	19.2	
C[C@H](CO)[C@H]1CC[C@H]2[C@@H]3CC=C4C(C)(C)c5c(cnn5-c5ccccc5)C[C@]4(C)[C@H]3CC[C@]12C	0	0	18.9	≥ 100		
C[C@H](CO)[C@H]1CC[C@H]2[C@@H]3CC=C4C(C)(C)c5nonc5C[C@]4(C)[C@H]3CC[C@]12C	42.4	90.5	100	≥ 100		
C[C@H](C(=O)Nc1ccc(Cl)cc1)[C@H]1CC[C@H]2[C@@H]3CC=C4C(C)(C)c5nnsc5C[C@]4(C)[C@H]3CC[C@]12C	81			≥ 100	45.2	
C[C@H](C(=O)O)[C@H]1CC[C@H]2[C@@H]3CC=C4C(C)(C)c5nnsc5C[C@]4(C)[C@H]3CC[C@]12C	86.8			≥ 100	45.8	
Cc1nc2c(o1)C(C)(C)C1=CC[C@H]3[C@@H]4CC[C@H]([C@H](C)CO)[C@@]4(C)CC[C@@H]3[C@@]1(C)C2	43	73.8	89.8	≥ 100		
